# According to patent US8618080B2, “Immunomodulatory compounds and treatment of diseases related to an overproduction of inflammatory cytokines” (OM Pharma, priority 2006, dated 2013):
# Tests used:
# [1] = Pyrogenicity in the rabbit; type: in vivo, New Zealand white rabbits; conditions: i.v., temperature increase
# Protocol: 3 New Zealand white rabbits/group were injected i.v. with either OM-197-MP-AC or OM-294-DP at different doses (according to the European Pharmacopoeia 2001, Method 2.6.8).
# Animals: Readout: temperature increase
# [2] = tested on: murine DC cells; assay: LPS-induced IL-12, TNF-α and IL-10 production by bone marrow derived dendritic cells; type: cell-based, murine (C57BL/7); conditions: murine BM-derived DC; compound 0.01-100 μg/ml 1 h 30 before LPS 1 μg/ml; 20 h; ELISA
# Protocol: Femora and tibiae from two male C57BL/7, 6 week-old (Charles River Laboratories France), were removed, stripped of muscles and tendons, and desinfected with 70% ethanol. Both ends of each bone were cut and the marrow was flushed with HBSS (Gibco BRL) using a syringe with a 26-gauge needle. The resulting cell suspension was centrifuged for 5 min. at 500 g and washed in HBSS. The cells were resuspended at 3×10^5 cells/ml in RPMI-1640 (Gibco BRL) supplemented with 2 mM L-glutamin (Sigma), 100 U/ml penicillin (Sigma), 100 μg/ml streptomycin (Sigma), 50 μM β-mercaptoethanol (Sigma), 10% heat-inactivated FCS (Sigma) and 15 ng/ml murine rGM-CSF (R&D).
# To generate bone marrow (BM) derived dendritic cells (DC), BM leukocytes were cultured in 100-mm bacteriological petri dishes (Falcon 1029) for 8 days at 37° C. in 5% CO2. On day 0, 10 ml of cell suspension were seeded per dish. On day 3, another 10 ml of freshly prepared medium were added to each plate and on day 6, 9 ml of top medium were carefully removed from each plate and replaced by 10 ml of fresh medium.
# Non-adherent cells of the 8-day old BM cell cultures were collected, centrifuged for 5 min. at 500 g, and resuspended at 1.25×10^6 cells/ml in supplemented RPMI containing 10 ng/ml GM-CSF. The cells were then seeded in 24-well tissue culture plates ([…]) and incubated for 1 h 30 at 37° C. in 5% CO2 in the absence or presence of OM-294-DP or OM-197-MP-AC (0.01-100 μg/ml/200 μl/well). LPS (E.coli O26:B6, Sigma), was then added at 1 μg/ml, and the plates were further incubated. After 20 h incubation, the supernatants were collected for analysis of cytokines. IL-12p70, IL-10, and TNF-α concentrations in DC culture supernatants were measured by ELISA using OptEIA matched Ab pairs from BD Pharmingen. Supersignal ELISA Pico chemiluminescent peroxidase substrate (BD Pharmingen) was used for the detection by luminometry (Wallac 1420 multilabel counter Victor-2). The assays were performed according to manufacturer's instructions.
# FIG. 1: IL-12 (left panels) and IL-10 (right panels) secretion by murine DC stimulated by LPS (1 μg/ml) alone, or first during 90 minutes with the indicated concentrations (in μg/ml) of OM-197-MP-AC (A) or 294-DP (B), and then by LPS (1 μg/ml) for 20 additional hours. The supernatants were collected from the DC cultures and analyzed by ELISA for the presence of IL-12 and IL-10.
# FIG. 2: TNF-α secretion by murine DC stimulated by LPS (1 μg/ml) alone, or first during 90 minutes with the indicated concentrations (in μg/ml) of 294-DP (294), or of OM-197-MP-AC (197), and then by LPS (1 μg/ml) for 20 additional hours. The supernatants were collected from the DC cultures and analyzed by ELISA for the presence of TNF-α.
# [3] = tested on: LACK-sensitised and -challenged BALB/c ByJ mice; assay: LACK-induced allergic asthma model, other routes of administration; type: in vivo
# Protocol: 43 females BALB/c ByJ mice 6-week old were purchased from the Centre d'Elevage Janvier (CERJ, Le Genest-St-Isle, France). All the mice were sensitised by 2 i.p. injections of 10 μg LACK protein precipitated in 2 mg of Alum (PerBio Science France SAS, Brebières, France) at days 1 and 8 (Julia et al., 2002).
# OM-197-MP-AC was given from day 0 to day 12 as described below. All the mice were challenged from day 16 to day 20 with either a solution of LACK (0.15%) or with PBS as indicated below.
# Experimental groups were the following: • Group A: untreated, LACK-sensitised and PBS-challenged mice (3 mice) • Group B: untreated LACK-sensitised and -challenged mice (7 mice) • Group C: i.p. OM-197-MP-AC-treated, LACK-sensitised and -challenged mice (5 mice) • Group D: i.g. OM-197-MP-AC-treated, LACK-sensitised and -challenged mice (7 mice) • Group E: s.c. OM-197-MP-AC-treated, LACK-sensitised and -challenged mice (7 mice). • Group F: i.n. OM-197-MP-AC-treated, LACK-sensitised and -challenged mice (7 mice) • Group G: aerosols OM-197-MP-AC-treated, LACK-sensitised and -challenged mice (7 mice)
# Mice of groups C, D, E, and G were treated on days: 0, 2, 3, 4, 7, 9, 10, 11, whereas mice of group F (intranasal route) were only treated on days 0, 4, 7, and 11.
# Mice of groups C and E were treated i.p. and s.c. respectively with 1 mg/Kg (20 μg per mouse) of OM-197-MP-AC.
# Mice of group D were treated intragastrically with 50 mg/Kg (1 mg per mouse) of OM-197-MP-AC.
# Mice of group F were treated i.n. with 20[…]μg of OM-197-MP-AC in a volume of 20 μl (OM-197-MP-AC at 2 mg/ml, 10[…]μl/nostril.)
# Mice of group G received aerosols of a solution of OM-197-MP-AC at 0.2% (2 mg/ml) for 10 minutes.
# All the mice were bled by heart puncture 2 days after the last aerosol. Total IgE were quantified by ELISA using rat EM-95 anti-IgE mAbs as coating antibody and rat anti-IgE mAbs coupled to biotin as second antibody as described elsewhere (Julia et al., 2002).
# Individual mice were bled and a canula was inserted into their trachea. Lungs were washed 3 times with 1 ml of warmed PBS. Cells were washed with PBS, resuspended in 300 μl, and counted using a Burker-Türk chamber. For differential BAL cell counts, cytospin preparations were made and stained with Wright/Giemsa.
structure (smiles),measurement,setting,value
"CCCCCCCCCCCC(=O)O[C@H](CCCCCCCCCCC)CC(=O)N[C@@H](CCOP(=O)(O)O)C(=O)NCCC[C@H](COC(=O)CCCCCN)NC(=O)C[C@H](O)CCCCCCCCCCC [OM-197-MP-AC, (3S, 9R)-3-[(R)-3-dodecanoyloxytetradecanoylamino]-4-oxo-5-aza-9-[(R)-3-hydroxytetradecanoylamino]-decan-1, 10-diol 1-dihydrogenophosphate 10-(6-aminohexanoate)]",Pyrogenic threshold,[1],> 0.9 mg/kg
same,LPS-induced production of IL-10,[2],increase
same,LPS-induced production of IL-12,[2],decrease
same,LPS-induced production of TNF-α,[2],decrease
same,Eosinophils in BAL,"[3]; aerosols of 0.2% solution, 10 minutes",same tendency as i.n. treated animals
same,BAL cell contents versus untreated mice,"[3]; i.g. 50 mg/Kg, unformulated",did not yield differences
same,Eosinophil frequencies and numbers in BAL,[3]; i.n. 20 μg per mouse,reduced by half
same,Total serum IgE,[3]; i.n. 20 μg per mouse,reduced titers
same,Eosinophils in BAL,[3]; i.p. 1 mg/Kg,both reduced percentage and reduced numbers
same,Total IgE,[3]; i.p. 1 mg/Kg,reduced amounts
same,BAL cell contents versus untreated mice,[3]; s.c. 1 mg/Kg,did not yield differences
